Test results taken from patent US11166460B2, “α-amino acrylate microbicide, and preparation method therefor and uses thereof” (priority 2017, dated 2021).
Converted amounts (≈) assume the structure as drawn. Read-outs that look alike come from different tables or passages of the source.

Tests used:
[1] = tested on: tobacco mosaic virus (TMV); experiment: Anti-TMV curative activity (treatment mode), live friction inoculation on tobacco seedlings; format: in vivo; details: Tobacco mosaic virus, read-out: Anti-TMV activity, Curative effect (inhibition), 100 μg/mL, tobacco seedlings, checked on seventh day
[2] = tested on: tobacco mosaic virus (TMV); experiment: Anti-TMV inactivation activity (inactivation mode), compound mixed with TMV before inoculation of tobacco leaves; format: in vivo; details: Tobacco mosaic virus, read-out: Anti-TMV activity, Inactivation effect (inhibition)
[3] = tested on: tobacco mosaic virus (TMV); experiment: Anti-TMV protective activity (protection mode), live friction inoculation on tobacco seedlings; format: in vivo; details: Tobacco mosaic virus, read-out: Anti-TMV activity, Protection effect (inhibition)
[4] = tested on: tobacco mosaic virus (TMV); experiment: Anti-TMV inducing activity (induction mode), tobacco seedlings; format: in vivo; details: Tobacco mosaic virus, read-out: Anti-TMV activity, Induction effect (inhibition), 100 μg/mL, tobacco seedlings
Alternaria solani = experiment: Fungicidal activity, fungi growth rate method, AS; format: cell-based; details: Alternaria solani, 50 μg/mL
Botrytis cinerea = experiment: Fungicidal activity, fungi growth rate method, BC; format: cell-based; details: Botrytis cinerea, 50 μg/mL
Cercospora arachidicola = experiment: Fungicidal activity, fungi growth rate method, CA; format: cell-based; details: Mycosphaerella arachidis, 50 μg/mL
wheat Gibberella zeae = experiment: microbe, parasite or virus in culture; format: cell-based; details: Fusarium graminearum
[5] = tested on: Phytophthora infestans (Mont) de Bary; experiment: microbe, parasite or virus in culture; format: cell-based; details: Phytophthora infestans
Physalospora piricola = experiment: Fungicidal activity, fungi growth rate method, PP; format: cell-based; details: 50 μg/mL
Pellicularia sasakii = experiment: Fungicidal activity, fungi growth rate method, PS; format: cell-based; details: 50 μg/mL
Rhizoctonia cerealis = experiment: Fungicidal activity, fungi growth rate method, RC; format: cell-based; details: Ceratobasidium cereale, 50 μg/mL
Sclerotinia sclerotiorum = experiment: microbe, parasite or virus in culture; format: cell-based; details: Sclerotinia sclerotiorum; for inhibition at 50 µg/mL: 50 μg/mL
[6] = read-out: Fungicidal activity (inhibition) against AS: Alternaria solani
[7] = read-out: Fungicidal activity, inhibition, AS
[8] = read-out: Fungicidal activity, inhibition, BC
[9] = read-out: Fungicidal activity (inhibition) against CA: Cercospora arachidicola
[10] = read-out: Fungicidal activity, inhibition, CA
[11] = read-out: Fungicidal activity, inhibition, GZ
[12] = read-out: Fungicidal activity (inhibition) against PI: Phytophthora infestans (Mont) de Bary
[13] = read-out: Fungicidal activity, inhibition, PI
[14] = read-out: Fungicidal activity (inhibition) against PP: Physalospora piricola
[15] = read-out: Fungicidal activity, inhibition, PP
[16] = read-out: Fungicidal activity (inhibition) against PS: Pellicularia sasakii
[17] = read-out: Fungicidal activity, inhibition, PS
[18] = read-out: Fungicidal activity (inhibition) against RC: Rhizoctonia cerealis
[19] = read-out: Fungicidal activity, inhibition, RC
[20] = read-out: Fungicidal activity, inhibition, SS
[21] = read-out: Fungicidal activity (inhibition) against GZ: wheat Gibberella zeae
[22] = read-out: Fungicidal activity (inhibition) against SS: Sclerotinia sclerotiorum

Structure (SMILES) | inhibition at 100 µg/mL [1] [%] | inhibition at 100 µg/mL [2] [%] | inhibition at 100 µg/mL [3] [%] | inhibition at 100 µg/mL [4] [%] | inhibition at 50 µg/mL (Alternaria solani; [7]) [%] | inhibition at 50 µg/mL (Botrytis cinerea; [8]) [%] | inhibition at 50 µg/mL (Cercospora arachidicola; [10]) [%] | inhibition at 50 µg/mL (wheat Gibberella zeae; [11]) [%] | inhibition at 50 µg/mL [5, 13] [%] | inhibition at 50 µg/mL (Physalospora piricola; [15]) [%] | inhibition at 50 µg/mL (Pellicularia sasakii; [17]) [%] | inhibition at 50 µg/mL (Rhizoctonia cerealis; [19]) [%] | inhibition at 50 µg/mL (Sclerotinia sclerotiorum; [20]) [%] | melting point [°C] | inhibition at 50 µg/mL (Sclerotinia sclerotiorum; [22]) [%] | further results
CONC(=O)/C(=C/c1csc(C2CCN(C(=O)OC(C)(C)C)CC2)n1)NC(=O)c1ccccc1 [Compound 42, (Z)-N-[1-[(methoxylamino)carbonyl]-2-[4-[2-[4-(1-Boc-piperidine)]thiazol]]ethenyl]benzamide] | 0 | 0 | 41 | 20 | 63 | 53 | 44 | 42 | 44 | 44 | 43 | 45 | 93 | 111 to 113 | – | inhibition at 50 µg/mL (Alternaria solani; [6]): 63%; inhibition at 50 µg/mL (Botrytis cinerea; read-out: Fungicidal activity (inhibition) against BC: Botrytis cinerea): 53%; inhibition at 50 µg/mL (Cercospora arachidicola; [9]): 44%; inhibition at 50 µg/mL [5, 12]: 44%; inhibition at 50 µg/mL (Physalospora piricola; [14]): 44%; inhibition at 50 µg/mL (Pellicularia sasakii; [16]): 43%; inhibition at 50 µg/mL (Rhizoctonia cerealis; [18]): 45%; EC90 (Sclerotinia sclerotiorum; read-out: EC90 against S. sclerotiorum in vitro): 155 µg/mL (≈ 318 µM)
O=C(N/C(=C\c1ccc([N+](=O)[O-])cc1)C(=O)N1CCC(O)(c2ccc(Br)cc2)CC1)c1ccccc1 [Compound 23, (Z)-N-[1-[[4-(4-bromophenyl)-4-hydroxy-1-piperidinyl]carbonyl]-2-(4-nitrophenyl)ethenyl]benzamide] | 0 | 4 | 59 | 11 | 25 | 7 | 10 | 19 | 17 | 10 | 33 | 26 | 67 | 186 to 188 | – | –
O=C(N/C(=C\c1ccccc1)C(=O)N1CCC(O)(c2ccc(Br)cc2)CC1)c1ccc(Cl)cc1 [Compound 7, (Z)-N-[1-[[4-(4-bromophenyl)-4-hydroxy-1-piperidinyl]carbonyl]-2-phenylethenyl]-4-chlorobenzamide] | 39 | 31 | 50 | 1 | 25 | 21 | 18 | 71 | 16 | 12 | 20 | 18 | 44 | 193 to 194 | – | inhibition at 50 µg/mL (wheat Gibberella zeae; [21]): 71%
O=C(O)/C(=C/c1ccccc1)NC(=O)c1ccc(C(F)(F)F)cc1 [Compound 68, (Z)-2-[4-(trifluoromethyl)benzoylamino]-3-phenylpropenoic acid] | 0 | 3 | 37 | 34 | 13 | 20 | 12 | 17 | 18 | 7 | 13 | 9 | 73 | 184 to 186 | 60 to 80 | –
O=C(N/C(=C\c1ccccc1)C(=O)N1CCC(O)CC1)c1ccccc1 [Compound 45, (Z)-N-[1-[(4-hydroxy-1-piperidinyl)carbonyl]-2-phenylethenyl]benzamide] | 30 | 22 | 54 | 52 | 25 | 12 | 6 | 43 | 24 | 6 | 3 | 13 | 38 | 115 to 117 | 38 | inhibition at 50 µg/mL (Alternaria solani; [6]): < 30%; inhibition at 50 µg/mL (Cercospora arachidicola; [9]): < 25%; inhibition at 50 µg/mL (wheat Gibberella zeae; [21]): < 45%; inhibition at 50 µg/mL [5, 12]: < 25%; inhibition at 50 µg/mL (Physalospora piricola; [14]): < 20%; inhibition at 50 µg/mL (Pellicularia sasakii; [16]): < 30%; inhibition at 50 µg/mL (Rhizoctonia cerealis; [18]): < 20%
Cc1nnsc1/C=C1\N=C(c2ccccc2)OC1=O [Compound 77, (4Z)-4-[5-(4-methyl-1,2,3-thiadiazol)ethenyl]-2-phenyl-1,3-oxazol-5-(4H)-one] | 0 | 0 | 40 | 44 | 11 | 12 | 24 | 43 | 16 | 6 | 14 | 23 | 47 | 196 to 198 | 47 | –
COc1ccc(C(=O)N/C(=C\c2ccccc2)C(=O)N2CCC(O)(c3ccc(Br)cc3)CC2)cc1 [Compound 5, (Z)-N-[1-[[4-(4-bromophenyl)-4-hydroxy-1-piperidinyl]carbonyl]-2-phenylethenyl]-4-methoxybenzamide] | 1 | 49 | 48 | 2 | 13 | 13 | 9 | 11 | 18 | 7 | 13 | 7 | 80 | 195 to 197 | 60 to 80 | –
O=C(N/C(=C\c1ccccc1)C(=O)N1CCC(O)(c2ccc(Br)cc2)CC1)c1ccc([N+](=O)[O-])cc1 [Compound 10, (Z)-N-[1-[[4-(4-bromophenyl)-4-hydroxy-1-piperidinyl]carbonyl]-2-phenylethenyl]-4-nitrobenzamide] | 39 | 62 | 13 | 48 | 8 | 11 | 9 | 17 | 18 | 7 | 17 | 16 | 86 | 130 to 132 | 80 to 95 | –
O=C(NC(Cc1ccccc1)C(=O)N1CCC(O)(c2ccc(Br)cc2)CC1)C1CCCCC1 (stereo not drawn) [Compound 50, N-[1-[[4-(4-bromophenyl)-4-hydroxy-1-piperidinyl]carbonyl]-2-phenylethyl]cyclohexanecarboxamide] | 37 | 34 | 47 | 34 | 29 | 29 | 26 | 29 | 26 | 18 | 20 | 23 | 50 | 200 to 202 | – | –
